The source of these data is ChEMBL document CHEMBL3585264 (J Med Chem, 2015).

Data set [1] is described as follows: Plasma concentration in CB17 SCID mouse xenografted with human PC3 cells at 1 mg/kg, po measured at 10 hrs by LC/MS-MS analysis. Format: ADME, organism-based, PC-3. Background: Xenograft models place foreign cells or tissue in a host animal.
A short description of data set [2]: AUC (0 to infinity) in rat at 5 mg/kg, po. The format is ADME, organism-based. The settings on record: in vivo. More on the design: dose 5 mg/kg, time infinity, route oral.
Data set [3] in a line: Cmax in rat at 5 mg/kg, po. The format is ADME, organism-based. On the set-up: dose 5 mg/kg, route oral. Particulars: in vivo.
Data set [4] in a line: Plasma concentration in CB17 SCID mouse xenografted with human PC3 cells at 10 mg/kg, po measured at 6 hrs by LC/MS-MS analysis. The format is ADME, organism-based, PC-3.
Data set [5] can be described thus: Oral bioavailability in dog at 0.3 mg/kg. The format is ADME, organism-based, Canis lupus familiaris. Particulars: in vivo.
A short description of data set [6]: Plasma concentration in CB17 SCID mouse xenografted with human PC3 cells at 10 mg/kg, po measured at 1 hr by LC/MS-MS analysis. The format is ADME, organism-based, PC-3.
The nature of data set [7]: Oral bioavailability in rat at 5 mg/kg. Format: ADME, organism-based. Particulars: in vivo.
Data set [8] is described as follows: Oral bioavailability in mouse at 5 mg/kg. Format: ADME, organism-based. Particulars: in vivo.
A short description of data set [9]: Plasma concentration in CB17 SCID mouse xenografted with human PC3 cells at 1 mg/kg, po measured at 24 hrs by LC/MS-MS analysis. The format is ADME, organism-based, PC-3.
Data set [10] in a line: Plasma concentration in CB17 SCID mouse xenografted with human PC3 cells at 10 mg/kg, po measured at 24 hrs by LC/MS-MS analysis. The format is ADME, organism-based, PC-3.
The nature of data set [11]: Plasma concentration in CB17 SCID mouse xenografted with human PC3 cells at 10 mg/kg, po measured at 10 hrs by LC/MS-MS analysis. Format: ADME, organism-based, PC-3.
Data set [12] in a line: Plasma concentration in CB17 SCID mouse xenografted with human PC3 cells at 1 mg/kg, po measured at 6 hrs by LC/MS-MS analysis. The format is ADME, organism-based, PC-3.
Data set [13] can be described thus: Plasma concentration in CB17 SCID mouse xenografted with human PC3 cells at 10 mg/kg, po measured at 3 hrs by LC/MS-MS analysis. The format is ADME, organism-based, PC-3.
Data set [14] can be described thus: Plasma concentration in CB17 SCID mouse xenografted with human PC3 cells at 1 mg/kg, po measured at 1 hr by LC/MS-MS analysis. Format: ADME, organism-based, PC-3.
Data set [15] in a line: Plasma concentration in CB17 SCID mouse xenografted with human PC3 cells at 1 mg/kg, po measured at 3 hrs by LC/MS-MS analysis. The format is ADME, organism-based, PC-3.
Data set [16] is described as follows: Mean residence time in rat at 2 mg/kg, iv. Format: ADME, organism-based. Particulars: in vivo.
The subject of a further data set is Rattus norvegicus. Nature of the data set: (§1) Tmax in rat at 5 mg/kg, po. The format is ADME, organism-based. The settings on record: in vivo, BLD = below limit of detection.
Data set [17] can be described thus: as §1. Format: ADME, organism-based. The settings on record: in vivo.

Structures are written as SMILES.

For the compound `CCN1C(=O)CNc2ncc(-c3ccc(-c4nc[nH]n4)nc3C)nc21` [CC-115], the concentration at 10 h in [1] stood at 120 nM; in data set [11], 1180 nM. Further, the AUC(0-inf) – broadly, the area under the concentration-time curve extrapolated to infinity – in data set [2] was 27.5 µM·h. Also, the highest level in data set [3] (Cmax) was 1670 nM. For the same compound, the concentration at 6 h in data set [4] turned out to be 2100 nM; in data set [12], 130 nM. For the same compound, the bioavailability (usually dose-corrected exposure relative to a reference, in per cent) in data set [5] turned out to be 100%; in [7], 78%; in [8], 53%. The concentration at 1 h amounted to 6780 nM in data set [6] and 530 nM in data set [14]. In addition, the concentration at 24 h in data set [9] worked out at 5 nM; in [10], 800 nM. In addition, the concentration at 3 h in [13] was 5690 nM; in data set [15] it was 340 nM. Besides, the mean residence time (MRT) (as a rule, a mean duration of stay, worked out from the concentration-time curve) in data set [16] came out at 4.3 h.
For `O=C1CN(CCC2CCOCC2)c2nc(-c3ccc(-c4nc[nH]n4)cc3)cnc2N1`, the time of peak concentration (Tmax) (commonly the time from dosing to the highest level) with Rattus norvegicus was “BLD”.
Take `O=C1CN(CCC2CCOCC2)c2nc(-c3ccc(-c4nc[nH]n4)nc3)cnc2N1`: the time to peak (Tmax) in data set [17] is 0.9 h. In addition, the area under the curve AUC(0-inf) in data set [2] worked out at 0.18 µM·h. Also, the Cmax (as a rule, the highest concentration seen after dosing) in [3] stood at 20 nM.
Consider `CCN1CC(=O)Nc2ncc(-c3ccc(-c4nc[nH]n4)nc3C)nc21`, for which, in [2], the total exposure AUC(0-inf) amounted to 5.27 µM·h. Moreover, the Cmax in data set [3] is 550 nM. This compound also registered a bioavailability in data set [7] of 50%. Moreover, the MRT in [16] was found to be 1.2 h.
